This data set can be described thus: gradient 5% acetonitrile 3 min, to 50% in 2 min, to 85% in 15 min, held 3 min, 100 µL/min. Particulars: column: Zorbax Extend-C18 2.1 x 50 mm; eluents: water / acetonitrile, 0.1% formic acid. In outline: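 Using water and acetonitrile that each contained 0.1% formic acid, mixtures of ~100 pure standards were separated at 100 μL/min on a Zorbax Extend-C18 column (2.1 × 50 mm, 1.8 μm). The HPLC fed a quadrupole time-of-flight mass spectrometer working in positive and negative ionization mode, with dead and dwell volumes of 40 μL and 900 μL. Data were acquired over 3 months. Retention time was read from computationally picked adduct peaks after manual inspection of each.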
In turn, `CCOC(=O)c1nc(Nc2ccc(S(=O)(=O)Nc3nc(C)cc(C)n3)cc2)c2ccccc2n1` registered an RP-LC retention time of 692 s.
Next, `O=C(c1ccc(F)cc1Cl)N1CCN(C(=O)c2nnn3c2COC(c2ccccc2)C3)CC1` (configuration not stated): 887 s; `COCCN1C(=O)c2ccccc2C(C(=O)NCCCN2CCC(C)CC2)C1c1cccs1` (configuration not stated): 640 s.
Compound `CCOC(=O)N1CCN(S(=O)(=O)c2ccc(C(=O)Nc3cccc(C)n3)cc2)CC1` showed an RP-LC retention time of 721 s.
Next, `O=C(CSc1nc(-c2ccccc2Cl)ns1)Nc1nccs1`: 818 s; `O=[N+]([O-])c1ccc2c(c1)CN(S(=O)(=O)c1cccs1)CC2`: 878 s.
`CCOC(=O)C1=C(CN(CC)CC)N(C)C(=O)NC1c1ccccc1` (configuration not stated): the RP-LC retention time was found to be 618 s.
For `Cc1nnc(N2CCCC(C(=O)NCc3ccccc3)C2)c2nn(-c3ccc(Cl)cc3)c(C)c12` (configuration not stated) the value was 765 s.
Next, `Cc1ncc2c(SCC(=O)NCc3ccc(F)cc3F)ncnc2n1`: 579 s.
Next, `Cc1cc(NC(=O)C2CCN(C(=O)c3c[nH]c4ccccc34)CC2)no1`: 639 s.
For the compound `CN(C)CCNC(=O)c1c(-c2ccccc2)c(-c2ccccc2)nn(C)c1=O`, the RP-LC retention time worked out at 628 s.
Next, `O=C(c1cc2ccccc2o1)N1CCCC(c2nnc(C(F)(F)F)o2)C1` (configuration not stated): 872 s; `CCOc1ccc(-n2ccnc(NC(=O)Nc3ccc(C)c(C)c3)c2=O)cc1`: 1090 s.
Next, `COc1cccc(-c2csc(Cc3nc(-c4ccc(Br)cc4)no3)n2)c1`: 1280 s.
For `CCOCc1cc(OC)c(-c2ccc(C[C@H](NC(=O)c3c(F)cccc3F)C(=O)O)cc2)c(OC)c1` the value was 1020 s; for `CCc1noc(NC(C)=O)c1-c1ccc(OC)c(S(=O)(=O)NCc2cccc(OC)c2)c1`, 786 s; for `Cc1cccc2nnc(N3CCCC(C(=O)Nc4ccccc4)C3)n12` (configuration not stated), 680 s.
The compound `O=C1C(N2CCN(S(=O)(=O)c3ccc(Cl)s3)CC2)CCN1Cc1ccccn1` (configuration not stated) yielded an RP-LC retention time of 613 s.
For `Cc1ccc(-c2[nH]ncc2CN2C[C@@H]3CCN(S(C)(=O)=O)C[C@]3(CF)C2)cc1C` the value was 617 s.
Next, `COc1ccc(N2CCN(c3cc(-c4nc(-c5ccccc5)no4)c4ccccc4n3)CC2)cc1`: 586 s; `COc1cc(C2C(C(=O)N3CCCCC3)=C(C)NC3=C2C(=O)CC(C)(C)C3)cc(OC)c1O` (configuration not stated): 1050 s.
For `CC(NC(=O)c1cn2c(n1)CSCC2)c1ccc(F)cc1` (configuration not stated) the value was 638 s.
For the compound `CCc1c(C2CCN(C(=O)c3ccnn3C)CC2)noc1N`, the RP-LC retention time came to 596 s.
Turning to `Cc1ccc(NC(=O)N2CCCC2c2nc(-c3ccccc3)no2)cc1` (configuration not stated), the RP-LC retention time is 964 s.
`CCc1cc(-c2csc(S(=O)(=O)Nc3ccc(C)cc3Br)c2)on1` had an RP-LC retention time of 1050 s.
Next, `Cc1cccc(-n2c(=O)c3c(cc(C)n3C)n(CC(=O)Nc3ccccc3)c2=O)c1`: 852 s.
Regarding `CCc1ccccc1NC(=O)Cn1cnc2nc(N3CCCC(C(=O)NC)C3)sc2c1=O` (configuration not stated), the RP-LC retention time was 646 s.
The compound `CCOC(=O)c1c(S(=O)(=O)N2CCC(C(=O)Nc3ccccc3OC)CC2)c(C)n(C)c1C` displayed an RP-LC retention time of 850 s.
For `COCc1nncn1C1CCN(S(=O)(=O)c2cccc(F)c2)CC1` the value was 693 s.
For `CC1CCN(S(=O)(=O)c2ccc(-c3nnc(C(=O)NCCCN4CCCC4)o3)cc2)CC1` the value was 689 s; for `CCC1=C(C(=O)Nc2ccccc2)C2CCCC3(C2)NCCCN13` (configuration not stated), 611 s; for `Cc1ccc(-n2cc3c(c(C(=O)NCCCOC(C)C)c2=O)CC(C)(C)CC3=O)cc1`, 997 s.
For `CCc1nc2cc(N3CCC(C(=O)NCCN4CCCC4)CC3)cnc2nc1CC` the value was 600 s.
Turning to `CC(=O)c1cccc(NC(=O)N(c2ccccc2)c2ccccc2)c1`, the RP-LC retention time came out at 860 s.
Next, `CC(=O)N1CCc2cc(N3CC(C(=O)Nc4ccccc4C)CC3=O)ccc21` (configuration not stated): 692 s; `COc1cc([C@@H]2c3cc4c(cc3[C@H](O)[C@@H](CO)[C@@H]2C(=O)N2CCN(C(C)C)CC2)OCO4)cc(OC)c1OC`: 608 s.
For `COc1ccc(C(=O)NCc2nc3ccccc3[nH]2)cc1` the value was 555 s.
`CCc1cccc(NC(=O)C2CCN(S(=O)(=O)c3ccc4c(c3)sc(=O)n4C)CC2)c1` displayed an RP-LC retention time of 862 s.
Next, `CCn1c(C)c(CN2CCC(C(=O)N3CCN(c4ccccc4F)CC3)CC2)c2ccccc21`: 729 s; `COc1ccc(N2CCN(CCNC(=O)c3ccc(Br)o3)CC2)cc1`: 583 s.
For `COc1ccc2c(c1)C1(CCN(C(=O)COc3ccc(Cl)cc3)C1)C(=O)N2C` (configuration not stated) the value was 878 s.
For the compound `CCCNS(=O)(=O)c1cc(-c2nc(C)cs2)n(CC(=O)N2CCCCC2)c1`, the RP-LC retention time is 869 s.
For `COC(=O)c1ccccc1NC(=O)Cn1cccc(-c2nc(-c3ccccc3)no2)c1=O` the value was 629 s.
Next, `O=C(NCCc1c[nH]c2ccc(Cl)cc12)c1cc2n(n1)CCCN(Cc1ccc(Cl)cc1)C2=O`: 998 s.
For `COc1ccc(Br)cc1CNC(=O)C1CCCN(C(=O)c2[nH]c(C)cc2C)C1` (configuration not stated) the value was 808 s; for `Cn1nc(C(=O)N2CCN(c3cc(-c4ccccc4)[nH]n3)CC2)c2ccccc21`, 805 s.
Turning to `COc1ccc(-c2csc(NC(=O)CCc3c(C)[nH]c(=O)[nH]c3=O)n2)cc1`, the RP-LC retention time came out at 646 s.
`CCN(C(=O)c1ccc(C)cc1)c1nc(-c2ccc(C)cc2)cs1` displayed an RP-LC retention time of 1320 s.
`CCCOc1ccc(CN2C[C@@H](CO)[C@H](N(C)C)C2)cc1OC` gave an RP-LC retention time of 551 s.
Next, `CC(C)NC(=O)c1ccc(OCC2CCCN(C(=O)Cc3ccc(Cl)cc3)C2)cc1` (configuration not stated): 918 s.
For `COCCC(=O)NC1CCN(C2=NS(=O)(=O)C(c3ccc(C(C)C)cc3)=C2C)CC1` the value was 813 s; for `N#Cc1cccc(NC(=O)C2CCN(S(=O)(=O)c3cc(-c4noc(C5CC5)n4)cs3)CC2)c1`, 994 s.
Next, `Cc1csc(-n2nc(C)c(CC(=O)Nc3ccc(F)cc3)c2C)n1`: 950 s; `CSc1nnc(NC(=O)c2ccccc2[N+](=O)[O-])s1`: 672 s.
`CC(C)CCNC(=O)C1CCCN(c2ncnc3c2oc2ccccc23)C1` (configuration not stated): the RP-LC retention time amounted to 786 s.
For `COc1ccccc1C(=O)N1CCCC1c1c(C)noc1C` (configuration not stated) the value was 693 s; for `O=C(NCCc1csc(C2CCCN(C(=O)C3CCOC3)C2)n1)C1CC1` (configuration not stated), 753 s.
For `Cc1ccc(CSc2nnc3c(S(=O)(=O)N4CCCC4)cccn23)cc1` the value was 852 s; for `COc1ccc2oc(-c3csc(NC(=O)c4ccc([N+](=O)[O-])s4)n3)cc2c1`, 1110 s; for `CC1=C(c2ccc(C)c(C)c2)S(=O)(=O)N=C1N1CCCN(C(=O)CC2CCCC2)CC1`, 967 s.
Next, `O=C(NCc1ccc(N2CCCCC2)cc1)c1cn2c(n1)CSCC2`: 577 s; `CCN1C(=O)COc2ccc(-c3noc(C4CC(=O)N(c5ccccc5)C4)n3)cc21` (configuration not stated): 879 s; `CCCNC(=O)N(C1CCOCC1)C1CCN(C(=O)c2ccc3ccccc3n2)CC1`: 707 s.
For the compound `CC1CCN(c2cc(-n3cnc(C(=O)N4CCN(c5ccccc5)CC4)c3)ncn2)CC1`, the RP-LC retention time amounted to 1040 s.
For `Cc1ccc(C)c(N2CCN(S(=O)(=O)c3cc(-c4cc(C(F)(F)F)[nH]n4)sc3C)CC2)c1` the value was 1300 s; for `CN1C(=O)c2cc(C(=O)NCCCN3CCc4ccccc4C3)nn2CC1(C)C(=O)NC1CCCC1` (configuration not stated), 623 s; for `COCc1noc([C@@H]2CN(Cc3cccc(OC)n3)C[C@H]2COC)n1`, 612 s.
Next, `Cc1cccc(S(=O)(=O)N2C[C@@H]3CN(S(=O)(=O)c4c(C)noc4C)C[C@H](C2)O3)c1`: 920 s.
For `O=S(=O)(c1cc(-c2nnc(C3CCC3)o2)co1)N1CCN(c2ccccn2)CC1` the value was 671 s; for `O=C1CC2(CCN(S(=O)(=O)c3ccc([N+](=O)[O-])cc3)CC2)Oc2ccccc21`, 907 s.
The compound `CC(C)n1cnc2ccc(-c3noc(COc4ccc(Cl)cc4)n3)cc21` had an RP-LC retention time of 853 s.
Next, `CCC1Oc2ccc(S(=O)(=O)N3CCC(C(=O)NCc4ccc(F)cc4)CC3)cc2NC1=O` (configuration not stated): 922 s.
For `Cc1ccc(S(=O)(=O)CCc2noc(C(=O)N3CCC4(CC3)OCCO4)n2)cc1` the value was 816 s.
Next, `CCN1CCN(c2ccc(-c3nc(-c4cccc(C)c4)no3)cn2)CC1`: 734 s.
As to `Cn1c(=O)sc2cc(S(=O)(=O)N3CCC(C(=O)NCc4ccc5c(c4)OCO5)CC3)ccc21`, the RP-LC retention time was 784 s.
The compound `Cc1c(CC(=O)NCC(C)C)c(=O)n2nc(-c3ccccc3)nc2n1C` had an RP-LC retention time of 717 s.
Next, `COCCCNC(=O)Cc1csc(SCc2ccc(Br)cc2)n1`: 830 s.

(Values after the METLIN SMRT retention time set (Domingo-Almenara et al. 2019).)
